# Assay results from patent publication US20190106697A1, “Inhibition Of Lactate Transporters For Use In The Treatment Of Inflammatory Diseases” (Queen Mary University of London, priority 2014, published 2019).
# Key:
# naive T-cells = assay: In vitro chemotaxis of naive T-cells towards CCL19/21; format: cell-based, mouse; settings: CCL19/21 200 ng/ml each; Rapamycin 200 nM, 2-DG 1 mM, Metformin 2 mM
# Source text: (§1) T-cell isolation, in-vitro activation and subset enrichment: T-cells were isolated from C57BL/6 murine lymph nodes and activated for 3 to 5 days with plate bound anti-CD3 and anti-CD28 antibodies (BioLegend), and IL-2 (PeproTech). CD4+ and CD8+ subsets were enriched with commercially available CD4+ and CD8+ T-cell isolation kits according to the manufacturer's instructions (Easysep, Invitrogen) either prior or post activation according to experimental settings. Chemokinesis assays: Chemokinesis assays were performed in 5 μm transwell inlays. In some experiments, T-cells were pre-treated overnight with a number of drugs purchased from Calbiochem: Rapamycin (200 nM), 2-DG (1 mM), Metformin (2 mM). […] 3×10^6 lymphocytes were seeded in the upper transwell chamber; chemokines were added to the lower chamber: CXCL10 (300 ng/ml), CCL5 (50 ng/ml), CCL19/21 (200 ng/ml of each chemokine). Migrated T-cells were counted with a hemocytometer 2, 4 and 6 hours after seeding and % of migrated cells was calculated.
# activated CD4+ T-cells [1] = assay: In vivo peritoneal recruitment model (CXCL10 i.p.) of pre-treated activated CD4+ T-cells; settings: cells pre-treated with Rapamycin 200 nM, 2-DG 1 mM, Metformin 2 mM; CXCL10 120 ng/mouse i.p.
# Protocol: In vivo peritoneal recruitment model: All the in vivo experiments were conducted under the UK Home Office regulation (PPL 70/7443). Activated T-cells (5×10^6/mouse) were pre-treated overnight with Rapamycin (200 nM), 2-Deoxyglucose (1 mM) or Metformin (2 mM), then labelled with the fluorescent cell dye DDAO (Invitrogen) and injected intravenously into syngeneic female C57BL/6 mice that had 3 hours prior received an intraperitoneal injection of CXCL10 (120 ng/mouse). 24 hours after injection, mice were sacrificed and spleen and peritoneal lavage were harvested. T-cells were stained for surface markers (CD4 and CD8, ebiosciences) and analysed by FACS. Cells were first gated on CD4 and subsequently analysed for DDAO positivity. This method was used in FIG. 3G and S3E.
# activated CD4+ T-cells [2] = assay: In vitro chemokinesis of activated CD4+ T-cells towards CXCL10 (transwell); format: cell-based, mouse; settings: for chemokinesis in vitro towards CXCL10 of pre-treated activated CD4+ T-cells: pre-treated overnight: Rapamycin 200 nM, 2-DG 1 mM, Metformin 2 mM
# Source text: as §1
# activated CD4+ T-cells [3] = assay: Extracellular acidification rate (ECAR), Seahorse analyzer, CD4+ T-cells; format: cell-based, mouse; settings: for effect on glycolysis (ECAR trace) of metabolic drugs: 2-DG 1 mM, Rapamycin 200 nM, Metformin 2 mM, Etomoxir 100 μM
# Protocol: (§2) Measurement of lactate, glycolysis, glucose uptake/flux and cell death: Lactate concentration was measured in the synovial fluid or peritoneal lavage using the Lactate assay Kit (Biovision), according to the manufacturer's instructions. Glycolytic metabolism was measured with a Seahorse XF24 Extracellular Flux Analyzer. Briefly, T-cells were grown in high glucose RPMI-1640 supplemented with 10% FCS. […] T-cell viability upon lactate or metabolic drug treatment was assessed by trypan blue exclusion assay.
# Slc16a1 on CD8+ T-cells = target: T1, Slc16a1 on CD8+ T-cells (Mus musculus, UniProt P53986); assay: Blockade of Slc16a1: chemokinesis of CD8+ T-cells exposed to lactic-acid; format: cell-based; settings: lactic-acid 10 mM; CHC 425 μM, phloretin 25 μM, antibody 2.5 μg/ml, AR-C155858 increasing concentrations
# T1 construct: endogenous in cells
# T1 sequence (P53986 1-493): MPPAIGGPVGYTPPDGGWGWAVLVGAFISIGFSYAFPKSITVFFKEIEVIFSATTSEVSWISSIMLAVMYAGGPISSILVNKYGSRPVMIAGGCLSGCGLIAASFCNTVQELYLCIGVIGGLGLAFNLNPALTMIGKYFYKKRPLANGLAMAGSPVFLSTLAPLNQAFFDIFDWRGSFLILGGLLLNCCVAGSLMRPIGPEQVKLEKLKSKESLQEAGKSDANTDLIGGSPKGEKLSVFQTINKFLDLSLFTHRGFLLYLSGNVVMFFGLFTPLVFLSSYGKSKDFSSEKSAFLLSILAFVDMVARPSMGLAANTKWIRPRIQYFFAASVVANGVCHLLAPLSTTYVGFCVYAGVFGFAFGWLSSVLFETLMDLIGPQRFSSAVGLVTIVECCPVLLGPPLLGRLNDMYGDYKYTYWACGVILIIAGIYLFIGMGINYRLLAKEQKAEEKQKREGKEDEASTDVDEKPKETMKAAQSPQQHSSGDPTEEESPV
# T1 sequence (P18572 140-389 partner limits assumed): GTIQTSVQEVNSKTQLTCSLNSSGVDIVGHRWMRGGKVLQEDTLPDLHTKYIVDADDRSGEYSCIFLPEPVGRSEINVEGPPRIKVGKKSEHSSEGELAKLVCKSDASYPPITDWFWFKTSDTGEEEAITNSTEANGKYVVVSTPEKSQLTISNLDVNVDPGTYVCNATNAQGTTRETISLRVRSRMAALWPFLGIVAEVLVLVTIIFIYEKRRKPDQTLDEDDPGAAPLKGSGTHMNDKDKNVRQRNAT
# Source text: as §1
# [4] = tested on: CD4+ and CD8+ T-cells in the peritoneum; assay: Zymosan-induced peritonitis: T-cells in peritoneal lavage; format: in vivo, mouse; settings: i.p. day 5 after zymosan, phloretin 50 μM, antibody 5 μg/ml, 24 h
# Protocol: The inventors used a well-established mouse model of zymosan-induced peritonitis, in which T-cells are recruited to the inflamed site 5 days after zymosan injection (Montero-Melendez et al 2011 Am J Pathol 179: 259-269). C57BL/6 mice were injected in the peritoneal cavity with zymosan (1 mg/mouse) on day 0 or left untreated. On day 5, Phloretin, an anti-Slc5a12 antibody or an isotype control antibody were injected into the peritoneal cavity. 24 hours later, mice were sacrificed and the peritoneal lavage was harvested.
# (§3) In vivo zymosan-induced peritonitis: C57BL/6 mice were injected in the peritoneal cavity with zymosan (1 mg per mouse) on day 0 or left untreated. On day 5, Phloretin (50 μM), anti-Slc5a12 antibody (5 μg/ml) or anti-rabbit IgG isotype control antibody (5 μg/ml; Invitrogen) were injected into the peritoneal cavity. 24 hours later, mice were sacrificed and the peritoneal lavage was harvested. T-cells were stained for surface markers (CD4 and CD8; ebiosciences) and analyzed by FACS. This method was used in FIG. 6B and S6A-B. Alternatively C57BL/6 mice were injected in the peritoneal cavity with zymosan (1 mg per mouse) on day 0. […] T-cells were stained for surface markers (CD4 and CD8; ebiosciences) and analyzed by FACS. Cells were first gated on CD4 and subsequently analysed for CFSE positivity. […]
# [5] = tested on: CFSE-labelled CD4+ T-cells; assay: Zymosan-induced peritonitis: adoptive transfer of CFSE-labelled CD4+ T-cells; format: in vivo, mouse; settings: co-injected i.p. day 5 after zymosan; 24 h
# Protocol: To establish that the decrease in T-cell localization to the peritoneal cavity was at least in part due to their increased release from this site, the inventors performed adoptive transfer experiments whereby CFSE-labelled CD4+ T-cells were co-injected with anti-Slc5a12 antibody, phloretin or an isotype control antibody in the peritoneal cavity of mice which had received zymosan (1 mg/mouse) 5 days before, to create an environment rich of lactate (FIG. 12A). 24 hours after the intra-peritoneal injection of CFSE-labelled CD4+ T-cells, mice were sacrificed, and peritoneal lavage and spleen were harvested.
# as §3, with “FACS.” for “FACS. This method was used in FIG. 6B and S6A-B. Alternatively C57BL/6 mice were injected in the peritoneal cavity with zymosan (1 mg per mouse) on day 0.”
# activated CD4+ T-cells [6] = assay: CCL5-induced chemokinesis of activated CD4+ T-cells; format: cell-based, mouse; settings: 10 mM; CCL5 50 ng/ml
# Source text: as §1
# activated CD4+ T-cells [7] = assay: Intracellular staining of IL-17 in activated CD4+ T-cells; format: cell-based, mouse; settings: sodium-lactate 10 mM vs untreated
# Protocol: Intracellular protein staining: Differentiated T-cells were incubated in permeabilization/fixation buffer (ebioscience) overnight at 4° C. Samples were washed in permeabilization buffer (ebioscience) and stained for the cytokines IFN-γ and IL-17, using fluorescently conjugated primary antibodies (1:200, ebiosciences) at 4° C. for 30 minutes, and assessed by flow cytometry using a LSR Fortessa (BD Biosciences) and FlowJo version 7.6.5 software.
# activated CD4+ T-cells [8] = assay: Western blot of glycolytic enzymes in activated CD4+ T-cells treated with CXCL10; format: cell-based, mouse; settings: CXCL10 1000 ng/ml; sodium-lactate 10 mM
# Protocol: Western blot: Protein lysates were prepared from activated T-cells in RIPA buffer. Proteins were separated with SDS-PAGE and transferred to a Nylon membrane (GE Healthcare). Membranes were blocked for 2 h at room temperature in 5% Milk/TBST, incubated overnight at 4° C. with primary antibodies (1:1000) and subsequently with HRP-conjugated secondary antibody (Amersham Bioscience) (1:5000). Antibodies against hexokinase 1, pyruvate kinase M1/2, Aldolase A, Enolase 1 and 6-actin were purchased from Cell Signaling; antibodies against Slc16a1 and Slc5a12 were purchased from Abeam.
# activated CD4+ T-cells [9] = assay: Glucose uptake and flux with 2-NBDG / 6-NBDG in CD4+ T-cells; format: cell-based, mouse; settings: 10 mM; 2-NBDG and 6-NBDG probes
# Protocol: as §2
# activated CD8+ T-cells = assay: In vitro chemokinesis of activated CD8+ T-cells towards CXCL10 (transwell); format: cell-based, mouse; settings: 10 mM lactic acid or sodium lactate; CXCL10 300 ng/ml
# Source text: as §1
# [10] = tested on: CD4+ subsets Th0, Th1, Th2 and Th17; assay: qRT-PCR of cytokines and Rorc in Th0, Th1, Th2, Th17 subsets; format: cell-based, mouse; settings: sodium-lactate 10 mM
# Protocol: RNA isolation and reverse transcription: RNA was isolated from 10^6 cells or 10 mg RA synovial tissue using commercially available kits (Qiagen) or Trizol (Life) according to the manufacturer's instructions and assessed for quality and quantity using absorption measurements. Reverse transcription to cDNA was performed according to the manufacturer's instruction (Applied Biosystems).
# qRT-PCR: Gene expression analysis was done using SYBR Green Supermix (Biorad) in CFX connect light cycler (Biorad), according to the manufacturer's instructions. Gene relative expression was calculated using the rlAct method and normalized to a reference control (RplpO). Primers for qRT-PCR were designed with the assistance of online tools (Primer 3PIus) using at least one exon junction binding site per primer pair where possible. A complete list of primers used is available in Table 2 below. Gene accession numbers are shown according to GenBank.
# Th subset differentiation: T-cells were isolated from murine lymph nodes and enriched for CD3+ and subsequently CD4+ subsets. 10^6 cells were plated/well and differentiated towards Th0, Th1, Th2 and Th17 phenotype. Conditions were: Th0 (10 ng/ml IL-2); Th1 (10 ng/ml IL-2; 3.4 ng/ml IL-12; 2 μg/ml Anti-IL-4); Th2 (10 ng/ml IL-2; 10 ng/ml IL-4; 2 μg/ml Anti-IFN-γ); Th17 (10 ng/ml IL-6; 2 μg/ml Anti-IL-4; 2 μg/ml Anti-IFN-γ, 5 ng/ml TGF-β). All antibodies and cytokines were purchased from PeproTech.
structure (smiles),measurement,setting,value
"O=CC[C@@H](O)[C@H](O)[C@H](O)CO [2-DG, 2-deoxyglucose]",naive T-lymphocyte motility,naive T-cells,decrease
same,chemokinesis in vivo: T-cell recruitment to the peritoneum,activated CD4+ T-cells [1],decrease
same,chemokinesis in vitro towards CXCL10 of pre-treated activated CD4+ T-cells,activated CD4+ T-cells [2],decrease
same,effect on glycolysis (ECAR trace) of metabolic drugs,activated CD4+ T-cells [3],inhibition of glycolysis
"N#CC(=Cc1ccc(O)cc1)C(=O)O [CHC, α-cyano-4-hydroxycinnamate]",chemokinesis of CD8+ T-cells exposed to lactic-acid upon blockade of Slc16a1,Slc16a1 on CD8+ T-cells,restored
CCOC(=O)[C@@]1(CCCCCCOc2ccc(Cl)cc2)CO1 [etomoxir],effect on glycolysis (ECAR trace) of metabolic drugs,activated CD4+ T-cells [3],only minor effects
CN(C)C(=N)N=C(N)N [metformin],naive T-lymphocyte motility,naive T-cells,reduced
same,chemokinesis in vivo: T-cell recruitment to the peritoneum,activated CD4+ T-cells [1],increased
same,chemokinesis in vitro towards CXCL10 of pre-treated activated CD4+ T-cells,activated CD4+ T-cells [2],increased
same,effect on glycolysis (ECAR trace) of metabolic drugs,activated CD4+ T-cells [3],activation of glycolysis
O=C(CCc1ccc(O)cc1)c1c(O)cc(O)cc1O [phloretin],CD8+ T-cells in the peritoneum,[4],significant decrease
same,CD4+ T-cells in the peritoneum,[4]; vs isotype control,did not show any effect
same,chemokinesis of CD8+ T-cells exposed to lactic-acid upon blockade of Slc16a1,Slc16a1 on CD8+ T-cells,restored
same,adoptively transferred T-cells in the peritoneum,[5],not
same,adoptively transferred T-cells in the spleen,[5],not
CC(O)C(=O)[O-].[Na+] (stereo not drawn) [sodium-lactate],CCL5-induced migration of CD4+ T-cells,activated CD4+ T-cells [6],decreased
same,expression of IL-17 protein in CD4+ cells,activated CD4+ T-cells [7],increased
same,CXCL10-induced upregulation of glycolytic enzymes,activated CD4+ T-cells [8],inhibited
same,glucose uptake and flux through glycolysis in CD4+ T-cells,activated CD4+ T-cells [9],selectively blocks
same,CXCL10-induced chemokinesis of activated CD8+ T-cells,activated CD8+ T-cells,not vice versa
same,IL-17 gene expression in Th subsets,[10]; all the Th subsets,significant up-regulation
same,Rorc gene expression in Th subsets,[10]; all the Th subsets,significantly elevated
same,gene expression of Th1 and Th2 signature cytokines,"[10]; reduced: IL-4, IL-5, IL-13 in Th17 subset",unmodified upon treatment with sodium-lactate or even reduced
same,CXCL10-induced chemokinesis of activated CD4+ T-cells,"activated CD4+ T-cells [2]; 10 mM lactic acid or sodium lactate, CXCL10 300 ng/ml",inhibited
same,EC50,"activated CD4+ T-cells [2]; increasing concentration of sodium lactate, CXCL10 300 ng/ml, read-out: EC50 for decrease of migration of CD4+ T-cells",~10 mM
same,glycolysis (ECAR) of CXCL10-stimulated CD4+ T-cells,"activated CD4+ T-cells [3]; CXCL10 1000 ng/ml, sodium-lactate 10 mM",shut down glycolysis
same,"ECAR of CD4+ T-cells, basal conditions","activated CD4+ T-cells [3]; sodium-lactate 10 mM, untreated control average 14 mpH/min",less than 5 mpH/min
